Reference: patent US8242124B2, “Diketopiperidine derivatives as HIV attachment inhibitors” (priority 2008, dated 2012)

test system: HIV-1 single-round infectious reporter virus; assay: Single-round infectious HIV-1 reporter virus (luciferase) infection assay in HeLa CD4 cells; settings: Human immunodeficiency virus 1, HeLa, 72 h, read-out: HIV_SC10PT (EC50, nM)
Protocol: 2. Compound was added in a 2 μl dimethylsulfoxide solution, so that the final assay concentration would be ≦10 μM.
3. 100 μl of single-round infectious reporter virus in Dulbecco's Modified Eagle Medium was then added to the plated cells and compound at an approximate multiplicity of infection (MOI) of 0.01, resulting in a final volume of 200 μl per well.
4. Virally-infected cells were incubated at 37 degrees Celsius, in a CO2 incubator, and harvested 72 h after infection.
5. Viral infection was monitored by measuring luciferase expression from viral DNA in the infected cells using a luciferase reporter gene assay kit, as described by the manufacturer (Roche Molecular Biochemicals, Indianapolis, Ind.). Infected cell supernatants were removed and 50 μl of lysis buffer was added per well. After 15 minutes, 50 μl of freshly-reconstituted luciferase assay reagent was added per well. Luciferase activity was then quantified by measuring luminescence using a Wallac MICROBETA® scintillation counter.
7. An EC50 provides a method for comparing the antiviral potency of the compounds of this disclosure. The effective concentration for fifty percent inhibition (EC50) was calculated with the Microsoft Excel Xlfit curve fitting software.

| Compound | EC50 [nM] |
| --- | --- |
| COc1cnc(-n2cnc(C)n2)c2[nH]cc(C(=O)C(=O)N3CCc4c(cccc4-c4ccccc4)C3)c12 [Compound 1, 1-(4-methoxy-7-(3-methyl-1H-1,2,4-triazol-1-yl)-1H-pyrrolo[2,3-c]pyridin-3-yl)-2-(5-phenyl-3,4-dihydroisoquinolin-2(1H)-yl)ethane-1,2-dione] | 0.02 |
| COc1cnc(-c2cc(C(=O)NCCO)[nH]n2)c2[nH]cc(C(=O)C(=O)N3CCc4c(cccc4-c4ccccn4)C3)c12 [Compound 9, N-(2-hydroxyethyl)-3-(4-methoxy-3-(2-oxo-2-(5-(pyridin-2-yl)-3,4-dihydroisoquinolin-2(1H)-yl)acetyl)-1H-pyrrolo[2,3-c]pyridin-7-yl)-1H-pyrazole-5-carboxamide] | 0.17 |
| COc1cnc(Cl)c2[nH]cc(C(=O)C(=O)N3CCc4c(cccc4-c4ccccn4)C3)c12 [Compound 30, 1-(7-chloro-4-methoxy-1H-pyrrolo[2,3-c]pyridin-3-yl)-2-(5-(pyridin-2-yl)-3,4-dihydroisoquinolin-2(1H)-yl)ethane-1,2-dione] | 171 |

same assay, conditions: Human immunodeficiency virus 1, HeLa, 72 h, read-out: HIV_SC10PT (EC50, nM), group symbol

| Compound | EC50 [nM] |
| --- | --- |
| COc1cnc(-n2cnc(C)n2)c2[nH]cc(C(=O)C(=O)N3CCc4c(cccc4-c4ccccn4)C3)c12 [Compound 2, 1-(4-methoxy-7-(3-methyl-1H-1,2,4-triazol-1-yl)-1H-pyrrolo[2,3-c]pyridin-3-yl)-2-(5-(pyridin-2-yl)-3,4-dihydroisoquinolin-2(1H)-yl)ethane-1,2-dione] | < 100 |
| CNC(=O)c1cc(-c2ncc(OC)c3c(C(=O)C(=O)N4CCc5c(cccc5-c5ccccn5)C4)c[nH]c23)n[nH]1 [Compound 4, 3-(4-methoxy-3-(2-oxo-2-(5-(pyridin-2-yl)-3,4-dihydroisoquinolin-2(1H)-yl)acetyl)-1H-pyrrolo[2,3-c]pyridin-7-yl)-N-methyl-1H-pyrazole-5-carboxamide] | < 100 |
| CNC(=O)c1ncc(OC)c2c(C(=O)C(=O)N3CCc4c(cccc4-c4ccccn4)C3)c[nH]c12 [Compound 5, 4-methoxy-N-methyl-3-(2-oxo-2-(5-(pyridin-2-yl)-3,4-dihydroisoquinolin-2(1H)-yl)acetyl)-1H-pyrrolo[2,3-c]pyridine-7-carboxamide] | < 100 |
| COc1cnc(C(=O)NCCO)c2[nH]cc(C(=O)C(=O)N3CCc4c(cccc4-c4ccccn4)C3)c12 [Compound 6, N-(2-hydroxyethyl)-4-methoxy-3-(2-oxo-2-(5-(pyridin-2-yl)-3,4-dihydroisoquinolin-2(1H)-yl)acetyl)-1H-pyrrolo[2,3-c]pyridine-7-carboxamide] | < 100 |
| COc1cnc(-c2cc(C(=O)O)[nH]n2)c2[nH]cc(C(=O)C(=O)N3CCc4c(cccc4-c4ccccn4)C3)c12 [Compound 7, 3-(4-methoxy-3-(2-oxo-2-(5-(pyridin-2-yl)-3,4-dihydroisoquinolin-2(1H)-yl)acetyl)-1H-pyrrolo[2,3-c]pyridin-7-yl)-1H-pyrazole-5-carboxylic acid] | < 100 |
| COc1cnc(-c2cc(C(=O)N(C)C)[nH]n2)c2[nH]cc(C(=O)C(=O)N3CCc4c(cccc4-c4ccccn4)C3)c12 [Compound 8, 3-(4-methoxy-3-(2-oxo-2-(5-(pyridin-2-yl)-3,4-dihydroisoquinolin-2(1H)-yl)acetyl)-1H-pyrrolo[2,3-c]pyridin-7-yl)-N,N-dimethyl-1H-pyrazole-5-carboxamide] | < 100 |
| COc1cnc(-n2ccc(C(F)(F)F)n2)c2[nH]cc(C(=O)C(=O)N3CCc4c(cccc4-c4ccccn4)C3)c12 [Compound 10, 1-(4-methoxy-7-(3-(trifluoromethyl)-1H-pyrazol-1-yl)-1H-pyrrolo[2,3-c]pyridin-3-yl)-2-(5-(pyridin-2-yl)-3,4-dihydroisoquinolin-2(1H)-yl)ethane-1,2-dione] | < 100 |
| COc1cnc(-n2cncn2)c2[nH]cc(C(=O)C(=O)N3CCc4c(cccc4-c4ccccn4)C3)c12 [Compound 11, 1-(4-methoxy-7-(1H-1,2,4-triazol-1-yl)-1H-pyrrolo[2,3-c]pyridin-3-yl)-2-(5-(pyridin-2-yl)-3,4-dihydroisoquinolin-2(1H)-yl)ethane-1,2-dione] | < 100 |
| COc1cnc(-n2cnc(C(F)(F)F)n2)c2[nH]cc(C(=O)C(=O)N3CCc4c(cccc4-c4ccccn4)C3)c12 [Compound 12, 1-(4-methoxy-7-(3-(trifluoromethyl)-1H-1,2,4-triazol-1-yl)-1H-pyrrolo[2,3-c]pyridin-3-yl)-2-(5-(pyridin-2-yl)-3,4-dihydroisoquinolin-2(1H)-yl)ethane-1,2-dione] | < 100 |
| COCc1ncnn1-c1ncc(OC)c2c(C(=O)C(=O)N3CCc4c(cccc4-c4ccccn4)C3)c[nH]c12 [Compound 13, 1-(4-methoxy-7-(5-(methoxymethyl)-1H-1,2,4-triazol-1-yl)-1H-pyrrolo[2,3-c]pyridin-3-yl)-2-(5-(pyridin-2-yl)-3,4-dihydroisoquinolin-2(1H)-yl)ethane-1,2-dione] | < 100 |
| COCc1ncn(-c2ncc(OC)c3c(C(=O)C(=O)N4CCc5c(cccc5-c5ccccn5)C4)c[nH]c23)n1 [Compound 14, 1-(4-methoxy-7-(3-(methoxymethyl)-1H-1,2,4-triazol-1-yl)-1H-pyrrolo[2,3-c]pyridin-3-yl)-2-(5-(pyridin-2-yl)-3,4-dihydroisoquinolin-2(1H)-yl)ethane-1,2-dione] | < 100 |
| COc1cnc(-n2cnc(C(C)(F)F)n2)c2[nH]cc(C(=O)C(=O)N3CCc4c(cccc4-c4ccccn4)C3)c12 [Compound 17, 1-(7-(3-(1,1-difluoroethyl)-1H-1,2,4-triazol-1-yl)-4-methoxy-1H-pyrrolo[2,3-c]pyridin-3-yl)-2-(5-(pyridin-2-yl)-3,4-dihydroisoquinolin-2(1H)-yl)ethane-1,2-dione] | < 100 |
| COc1cnc(-n2ccnn2)c2[nH]cc(C(=O)C(=O)N3CCc4c(ncnc4-c4ccccn4)C3)c12 [Compound 19, 1-(4-methoxy-7-(1H-1,2,3-triazol-1-yl)-1H-pyrrolo[2,3-c]pyridin-3-yl)-2-(4-(pyridin-2-yl)-5,6-dihydropyrido[3,4-d]pyrimidin-7(8H)-yl)ethane-1,2-dione] | < 100 |
| COc1cnc(-c2cc(CO)[nH]n2)c2[nH]cc(C(=O)C(=O)N3CCc4c(ncnc4-c4ccccn4)C3)c12 [Compound 21, 1-(7-(5-(hydroxymethyl)-1H-pyrazol-3-yl)-4-methoxy-1H-pyrrolo[2,3-c]pyridin-3-yl)-2-(4-(pyridin-2-yl)-5,6-dihydropyrido[3,4-d]pyrimidin-7(8H)-yl)ethane-1,2-dione] | < 100 |
| COc1cnc(-c2cc(C(C)(C)O)[nH]n2)c2[nH]cc(C(=O)C(=O)N3CCc4c(ncnc4-c4ccccn4)C3)c12 [Compound 22, 1-(7-(5-(2-hydroxypropan-2-yl)-1H-pyrazol-3-yl)-4-methoxy-1H-pyrrolo[2,3-c]pyridin-3-yl)-2-(4-(pyridin-2-yl)-5,6-dihydropyrido[3,4-d]pyrimidin-7(8H)-yl)ethane-1,2-dione] | < 100 |
| COc1cnc(-n2cnc(CO)n2)c2[nH]cc(C(=O)C(=O)N3CCc4c(ncnc4-c4ccccn4)C3)c12 [Compound 23, 1-(7-(3-(hydroxymethyl)-1H-1,2,4-triazol-1-yl)-4-methoxy-1H-pyrrolo[2,3-c]pyridin-3-yl)-2-(4-(pyridin-2-yl)-5,6-dihydropyrido[3,4-d]pyrimidin-7(8H)-yl)ethane-1,2-dione] | < 100 |
| COc1cnc(-n2cnc(C(C)O)n2)c2[nH]cc(C(=O)C(=O)N3CCc4c(ncnc4-c4ccccn4)C3)c12 (stereo not shown) [Compound 24, 1-(7-(3-(1-hydroxyethyl)-1H-1,2,4-triazol-1-yl)-4-methoxy-1H-pyrrolo[2,3-c]pyridin-3-yl)-2-(4-(pyridin-2-yl)-5,6-dihydropyrido[3,4-d]pyrimidin-7(8H)-yl)ethane-1,2-dione] | < 100 |
| COc1cnc(-n2cnc(C)n2)c2[nH]cc(C(=O)C(=O)N3CCc4c(cc(C#N)c(=O)n4-c4ccccc4)C3)c12 [Compound 25, 6-(2-(4-methoxy-7-(3-methyl-1H-1,2,4-triazol-1-yl)-1H-pyrrolo[2,3-c]pyridin-3-yl)-2-oxoacetyl)-2-oxo-1-phenyl-1,2,5,6,7,8-hexahydro-1,6-naphthyridine-3-carbonitrile] | < 100 |
| COc1cnc(-n2cnc(C)n2)c2[nH]cc(C(=O)C(=O)N3CCc4c(ccnc4-c4ccccn4)C3)c12 [Compound 26, 1-(4-methoxy-7-(3-methyl-1H-1,2,4-triazol-1-yl)-1H-pyrrolo[2,3-c]pyridin-3-yl)-2-(5-(pyridin-2-yl)-3,4-dihydro-2,6-naphthyridin-2(1H)-yl)ethane-1,2-dione] | < 100 |
| COc1cnc(-n2cnc(C)n2)c2[nH]cc(C(=O)C(=O)N3CCc4c(ccnc4-c4ccccc4)C3)c12 [Compound 27, 1-(4-methoxy-7-(3-methyl-1H-1,2,4-triazol-1-yl)-1H-pyrrolo[2,3-c]pyridin-3-yl)-2-(5-phenyl-3,4-dihydro-2,6-naphthyridin-2(1H)-yl)ethane-1,2-dione] | < 100 |
| COc1cnc(-n2cnc(C)n2)c2[nH]cc(C(=O)C(=O)N3CCc4c(-c5ccccn5)cccc4C3O)c12 (stereo not shown) [Compound 28, 1-(1-hydroxy-5-(pyridin-2-yl)-3,4-dihydroisoquinolin-2(1H)-yl)-2-(4-methoxy-7-(3-methyl-1H-1,2,4-triazol-1-yl)-1H-pyrrolo[2,3-c]pyridin-3-yl)ethane-1,2-dione] | < 100 |
| COc1cnc(-c2cc(CO)[nH]n2)c2[nH]cc(C(=O)C(=O)N3CCc4c(cccc4-c4ccccn4)C3)c12 [Compound 29, 1-(7-(5-(hydroxymethyl)-1H-pyrazol-3-yl)-4-methoxy-1H-pyrrolo[2,3-c]pyridin-3-yl)-2-(5-(pyridin-2-yl)-3,4-dihydroisoquinolin-2(1H)-yl)ethane-1,2-dione] | < 100 |
